The record followed here is US20250034216A1, “STEREOSELECTIVE COVALENT LIGANDS FOR ONCOGENIC AND IMMUNOLOGICAL PROTEINS” (The Scripps Research Institute, priority 2021, published 2025).

Structures are written as SMILES.

The target in this assay is T1, VWA5B2_C1040 (Homo sapiens, UniProt Q8N398).
T1 construct: endogenous in cells; host or cells: 22Rv1
T1 sequence (Q8N398 1-1242): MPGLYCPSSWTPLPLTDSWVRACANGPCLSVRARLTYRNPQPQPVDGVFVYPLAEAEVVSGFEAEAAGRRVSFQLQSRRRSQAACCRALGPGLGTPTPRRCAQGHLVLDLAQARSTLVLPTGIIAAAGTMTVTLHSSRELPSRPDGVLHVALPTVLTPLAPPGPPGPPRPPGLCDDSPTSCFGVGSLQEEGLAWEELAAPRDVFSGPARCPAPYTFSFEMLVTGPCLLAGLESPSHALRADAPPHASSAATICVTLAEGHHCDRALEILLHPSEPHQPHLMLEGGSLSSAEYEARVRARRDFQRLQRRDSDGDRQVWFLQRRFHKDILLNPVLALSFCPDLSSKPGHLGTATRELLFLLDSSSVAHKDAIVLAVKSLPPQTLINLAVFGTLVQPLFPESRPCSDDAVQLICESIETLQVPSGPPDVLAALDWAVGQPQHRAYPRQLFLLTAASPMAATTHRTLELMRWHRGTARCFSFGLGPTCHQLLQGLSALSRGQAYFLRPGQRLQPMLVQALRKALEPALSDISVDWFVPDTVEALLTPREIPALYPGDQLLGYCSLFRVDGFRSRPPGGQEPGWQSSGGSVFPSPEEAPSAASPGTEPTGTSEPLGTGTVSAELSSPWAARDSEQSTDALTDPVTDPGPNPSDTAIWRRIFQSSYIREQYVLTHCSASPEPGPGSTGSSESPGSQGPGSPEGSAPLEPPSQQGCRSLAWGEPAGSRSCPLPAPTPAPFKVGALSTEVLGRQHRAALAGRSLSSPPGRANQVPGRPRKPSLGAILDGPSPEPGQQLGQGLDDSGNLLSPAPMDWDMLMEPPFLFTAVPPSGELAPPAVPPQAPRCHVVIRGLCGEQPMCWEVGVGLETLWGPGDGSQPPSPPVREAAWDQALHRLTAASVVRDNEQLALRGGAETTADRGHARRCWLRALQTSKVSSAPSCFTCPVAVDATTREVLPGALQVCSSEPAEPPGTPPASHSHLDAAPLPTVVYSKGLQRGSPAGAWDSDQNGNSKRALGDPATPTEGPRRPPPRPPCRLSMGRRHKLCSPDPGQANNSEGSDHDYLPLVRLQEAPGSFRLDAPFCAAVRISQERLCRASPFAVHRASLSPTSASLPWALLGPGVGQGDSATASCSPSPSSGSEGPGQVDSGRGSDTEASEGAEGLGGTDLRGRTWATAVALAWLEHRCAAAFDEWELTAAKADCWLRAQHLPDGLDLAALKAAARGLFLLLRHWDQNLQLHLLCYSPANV
Briefly: IA-DTB cysteine engagement. Type of assay: binding. The settings on record: 22Rv1 cells, 20 μM probe, 1 h, relative to DMSO. The gist of the method: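 Probe-exposed cells were lysed, IA-DTB-labeled, trypsinized and streptavidin-enriched. Multiplexed TMT quantitation gave engagement ratios versus DMSO, with non-tryptic peptides excluded and intensities normalized to median summed signal.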

For the compound `C=CC(=O)N1C[C@H](c2ccc(Br)cc2)[C@H]1C(=O)Nc1cccc2cccnc12` [MY-3A, (2S,3S)-1-acryloyl-3-(4-bromophenyl)-N-(quinolin-8-yl)azetidine-2-carboxamide], the “% engagement VWA5B2_C1040” value is given as 51.5%. On to `C=CC(=O)N1C[C@@H](c2ccc(Br)cc2)[C@H]1C(=O)Nc1cccc2cccnc12` [MY-1A, (2S,3R)-1-acryloyl-3-(4-bromophenyl)-N-(quinolin-8-yl)azetidine-2-carboxamide], for which the “% engagement VWA5B2_C1040” value is on record as 76.5%. For `C=CC(=O)N1C[C@H](c2ccc(Br)cc2)[C@@H]1C(=O)Nc1cccc2cccnc12` [MY-1B, (2R,3S)-1-acryloyl-3-(4-bromophenyl)-N-(quinolin-8-yl)azetidine-2-carboxamide] the value was 76.25%; for `C=CC(=O)N1C[C@H](c2ccc(Br)cc2)[C@H]1C(=O)Nc1cccc2cccnc12` [MY-3B, (2S,3S)-1-acryloyl-3-(4-bromophenyl)-N-(quinolin-8-yl)azetidine-2-carboxamide], 74.25%.
